Laboratory results as given in US20100144755A1 (Glaxo Group Limited, priority 2006, published 2010).
Counter-ions that a name gives are not always drawn.

Test system: influx of neutrophils to the lung in LPS-challenged rats
Experiment: Rat LPS neutrophilia model
Assay type: in vivo
Conditions: LPS aerosol, intratracheal dosing, in at least one of the range of conditions tested, significance p<0.05
Protocol: Rat LPS Neutrophilia Model
The effect of compounds on the influx of neutrophils to the lung in LPS-challenged rats is evaluated as follows. The test compound is suspended in one of the following solutions: 0.5% tween 80/PBS, 0.5% tween 80/saline, 10% EtOH/saline (with pH adjusted to 2.0, or 8.0 with HCl, or unadjusted), Saline @pH 2.0, 6.5 or 8.0, 0.5% Tragacanth, 1% DMSO/20% Encapsin/Saline, or acidified 5% Tragacanth. The suspension process may be aided by the use of a glass homogenizer. For intratracheal administration, the animals are anesthetized with inhaled isoflurane and placed in a supine position, the trachea is intubated with a steel gavage needle (1.5 inch, 22 gauge, small ball) or a Penn-Century Microsprayer Aerosolizer (model IA-1B) and 200 ul of dosing solution is delivered. The animals are visually monitored during the recovery process, which typically occurs within two minutes. It is noted that the test compounds may be alternatively administered via the microsprayer in a dry powder blend with a suitable excipient, such as lactose.
Rats treated with compound or vehicle (15 min-24 hours pretreatment) are exposed to an LPS aerosol (100 ug/ml) for 15 min. Four hours later the rats are euthanized with pentobarbital (100 mg/kg, i.p.) and the airways are lavaged with 5 washes of 5 ml of phosphate buffered saline. The harvested cells are stained (Diffquick) and counted to determine total and differential cell data. […] Inhibition of neutrophil levels relative to no compound controls is calculated based on the differential counts.
The data is obtained as % inhibition using a particular concentration and pretreat time.

Structure (SMILES) | inhibition of neutrophilia
Cc1ccc(C(=O)NC2CCCC2)cc1-c1nc(N2CCC(N)CC2)nc2c1ccc(=O)n2-c1c(F)cccc1F [Example 70, 3-[2-(4-amino-1-piperidinyl)-8-(2,6-difluorophenyl)-7-oxo-7,8-dihydropyrido[2,3-d]pyrimidin-4-yl]-N-cyclopentyl-4-methylbenzamide] | statistically nonsignificant inhibition
CCC(C)NC(=O)c1ccc(C)c(-c2nc(NCCCN(CC)CC)nc3c2ccc(=O)n3-c2c(F)cccc2F)c1 (stereo not shown) [Example 162, 3-[2-{[3-(diethylamino)propyl]amino}-8-(2,6-difluorophenyl)-7-oxo-7,8-dihydropyrido[2,3-d]pyrimidin-4-yl]-4-methyl-N-(1-methylpropyl)benzamide] | statistically nonsignificant inhibition
Cc1ccc(C(=O)Nc2ccc(F)cc2)cc1-c1nc(NCc2ncc[nH]2)nc2c1ccc(=O)n2-c1c(F)cccc1F [Example 78, 3-{8-(2,6-difluorophenyl)-2-[(1H-imidazol-2-ylmethyl)amino]-7-oxo-7,8-dihydropyrido[2,3-d]pyrimidin-4-yl}-N-(4-fluorophenyl)-4-methylbenzamide] | statistically significant inhibition
Cc1ccc(C(=O)NCCc2ccccc2)cc1-c1nc(NC2CC(C)(C)NC(C)(C)C2)nc2c1ccc(=O)n2-c1c(F)cccc1F [Example 28, 3-{8-(2,6-difluorophenyl)-7-oxo-2-[(2,2,6,6-tetramethyl-4-piperidinyl)amino]-7,8-dihydropyrido[2,3-d]pyrimidin-4-yl}-4-methyl-N-(2-phenylethyl)benzamide] | statistically nonsignificant inhibition
CCN(CC)CCCNc1nc(-c2cc(C(=O)NCC3CCCCC3)ccc2C)c2ccc(=O)n(-c3c(F)cccc3F)c2n1 [Example 135, N-(cyclohexylmethyl)-3-[2-{[3-(diethylamino)propyl]amino}-8-(2,6-difluorophenyl)-7-oxo-7,8-dihydropyrido[2,3-d]pyrimidin-4-yl]-4-methylbenzamidetrifluoroacetate] | inactive
Cc1ccc(C(=O)Nc2nccs2)cc1-c1nc(NCc2ncc[nH]2)nc2c1ccc(=O)n2-c1c(F)cccc1F [79(c), 3-{8-(2,6-difluorophenyl)-2-[(1H-imidazol-2-ylmethyl)amino]-7-oxo-7,8-dihydropyrido[2,3-d]pyrimidin-4-yl}-4-methyl-N-1,3-thiazol-2-ylbenzamide] | statistically significant inhibition
CCN(CC)CCCNc1nc(-c2cc(C(=O)NCC3CC3)ccc2C)c2ccc(=O)n(-c3c(F)cccc3F)c2n1 [Example 138, N-(cyclopropylmethyl)-3-[2-{[3-(diethylamino)propyl]amino}-8-(2,6-difluorophenyl)-7-oxo-7,8-dihydropyrido[2,3-d]pyrimidin-4-yl]-4-methylbenzamide trifluoroacetate] | statistically nonsignificant inhibition
CCN(CC)CCCNc1nc(-c2cc(C(=O)NC3CCC3)ccc2C)c2ccc(=O)n(-c3c(F)cccc3F)c2n1 [Example 137, N-cyclobutyl-3-[2-{[3-(diethylamino)propyl]amino}-8-(2,6-difluorophenyl)-7-oxo-7,8-dihydropyrido[2,3-d]pyrimidin-4-yl]-4-methylbenzamide trifluoroacetate] | statistically significant inhibition
Cc1ccc(C(=O)Nc2ccc(F)cc2)cc1-c1nc(N2CCC(N)CC2)nc2c1ccc(=O)n2-c1c(F)cccc1F [Example 72, 3-[2-(4-amino-1-piperidinyl)-8-(2,6-difluorophenyl)-7-oxo-7,8-dihydropyrido[2,3-d]pyrimidin-4-yl]-N-(4-fluorophenyl)-4-methylbenzamide] | statistically significant inhibition
CCCNC(=O)c1ccc(C)c(-c2nc(N3CCC(N)CC3)nc3c2ccc(=O)n3-c2c(F)cccc2F)c1 [Example 69, 3-[2-(4-amino-1-piperidinyl)-8-(2,6-difluorophenyl)-7-oxo-7,8-dihydropyrido[2,3-d]pyrimidin-4-yl]-4-methyl-N-propylbenzamide] | statistically significant inhibition
